Several values for one entry are separate records, joined by “and”; a condition that tells them apart may be missing. Identical values can stand only once. Like-named read-outs stand apart in the source and are kept apart here.
Tests used:
[1] = target: T1, cardiac SR (SERCA2a + PLB) (Sus scrofa, UniProt P11607); assay: Ca-ATPase activity of cardiac SR (CSR), NADH-linked enzyme-coupled assay; type: biochemical, pig; conditions: for Vmax @ 30 µM / ΔVmax @ 30 µM: 30 µM compound; for ΔVmax @ 30 µM: relative to DMSO control
T1 construct: Cardiac SR membrane vesicles were isolated from ventricular myocardium obtained from fresh pig hearts; from tissue; host or cells: pig ventricular myocardium, SR membrane vesicles
T1 sequence (P11607 1-997 isoform P11607-2): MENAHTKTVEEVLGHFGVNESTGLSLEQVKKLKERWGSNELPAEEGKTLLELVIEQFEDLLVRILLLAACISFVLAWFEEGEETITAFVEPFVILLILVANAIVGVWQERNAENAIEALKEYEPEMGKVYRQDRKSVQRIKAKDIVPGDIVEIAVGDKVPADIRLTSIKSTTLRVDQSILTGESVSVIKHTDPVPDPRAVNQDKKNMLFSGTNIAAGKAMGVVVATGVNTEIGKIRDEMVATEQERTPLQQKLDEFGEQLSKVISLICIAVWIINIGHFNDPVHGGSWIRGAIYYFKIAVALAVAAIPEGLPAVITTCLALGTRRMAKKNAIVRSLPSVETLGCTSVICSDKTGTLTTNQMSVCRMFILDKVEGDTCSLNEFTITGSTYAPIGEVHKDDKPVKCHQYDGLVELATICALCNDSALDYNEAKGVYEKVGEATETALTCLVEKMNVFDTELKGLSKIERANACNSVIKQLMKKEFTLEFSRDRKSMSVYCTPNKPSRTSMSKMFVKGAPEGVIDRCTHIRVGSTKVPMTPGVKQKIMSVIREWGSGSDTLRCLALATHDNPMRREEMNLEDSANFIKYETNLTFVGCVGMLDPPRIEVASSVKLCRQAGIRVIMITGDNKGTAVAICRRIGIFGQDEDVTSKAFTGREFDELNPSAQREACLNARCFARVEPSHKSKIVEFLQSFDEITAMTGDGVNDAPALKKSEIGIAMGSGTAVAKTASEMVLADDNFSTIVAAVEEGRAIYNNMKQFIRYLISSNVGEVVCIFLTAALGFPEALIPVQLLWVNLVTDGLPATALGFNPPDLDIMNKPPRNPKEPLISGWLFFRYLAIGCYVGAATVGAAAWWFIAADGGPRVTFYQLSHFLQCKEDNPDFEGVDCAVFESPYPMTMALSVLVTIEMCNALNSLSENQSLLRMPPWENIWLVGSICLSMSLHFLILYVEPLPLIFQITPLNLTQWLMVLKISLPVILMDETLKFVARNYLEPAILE
T1 sequence (P61013 whole entry partner): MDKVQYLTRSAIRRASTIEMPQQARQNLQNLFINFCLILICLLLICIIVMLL
Procedure: To characterize the relationship between the structural readout (FRET) and the functional effects, in vitro Ca-ATPase assays were performed on cardiac SR (which contains both SERCA2a and PLB). […] To further examine the functional effects of Hit compounds, Ca-ATPase assays were performed on both skeletal SR (SERCA1a only) and cardiac SR (SERCA2a + PLB) at a series of Ca concentrations ranging from pCa 5 to 8.
(§1) Skeletal muscle SR membrane vesicles were isolated from longissimus dorsi obtained from New Zealand white rabbits, as previously described. Cardiac SR membrane vesicles were isolated from ventricular myocardium obtained from fresh pig hearts. All experimental protocols were reviewed and approved by University of Minnesota’s Institutional Animal Care and Use Committee, an Association for Assessment and Accreditation of Laboratory Animal Care institution.
(§2) An enzyme-coupled, NADH-linked ATPase assay was used to measure SERCA ATPase activity in 96-well microplates. Each well contained 0.8 μg (skeletal) or 2 μg (cardiac) of SR vesicles adjusted for the different SERCA contents of skeletal and cardiac SR, 50 mM MOPS (pH 7.0), 100 mM KCl, 5 mM MgCl2, 1 mM EGTA, 0.2 mM NADH, 1 mM phosphoenol pyruvate, 10 IU/mL of pyruvate kinase, 10 IU/mL of lactate dehydrogenase, 3.5 μg/mL of the Ca ionophore A23187, and CaCl2 added to set free [Ca] to the desired values. The assay was started upon the addition of ATP at a final concentration of 5 mM and read in a SpectraMax Plus microplate spectrophotometer rom Molecular Devices (Sunnyvale, CA).

[2] = target: T2, skeletal SR (SERCA1a only) (Oryctolagus cuniculus, UniProt P04191); assay: Ca-ATPase activity of skeletal SR (SSR), NADH-linked enzyme-coupled assay; type: biochemical, rabbit; conditions: for Vmax @ 30 µM / ΔVmax @ 30 µM / EC50 / percent change in Vmax vs DMSO control at 30 µM: SSR; for Vmax @ 30 µM / ΔVmax @ 30 µM / percent change in Vmax vs DMSO control at 30 µM: 30 µM compound; for ΔVmax @ 30 µM / percent change in Vmax vs DMSO control at 30 µM: relative to DMSO control; for percent change in Vmax vs DMSO control at 30 µM: read-out: ΔVmax @ 30 µM
T2 construct: Skeletal muscle SR membrane vesicles were isolated from longissimus dorsi obtained from New Zealand white rabbits; from tissue; host or cells: rabbit longissimus dorsi skeletal muscle, SR membrane vesicles
T2 sequence (P04191 1-994 isoform P04191-2): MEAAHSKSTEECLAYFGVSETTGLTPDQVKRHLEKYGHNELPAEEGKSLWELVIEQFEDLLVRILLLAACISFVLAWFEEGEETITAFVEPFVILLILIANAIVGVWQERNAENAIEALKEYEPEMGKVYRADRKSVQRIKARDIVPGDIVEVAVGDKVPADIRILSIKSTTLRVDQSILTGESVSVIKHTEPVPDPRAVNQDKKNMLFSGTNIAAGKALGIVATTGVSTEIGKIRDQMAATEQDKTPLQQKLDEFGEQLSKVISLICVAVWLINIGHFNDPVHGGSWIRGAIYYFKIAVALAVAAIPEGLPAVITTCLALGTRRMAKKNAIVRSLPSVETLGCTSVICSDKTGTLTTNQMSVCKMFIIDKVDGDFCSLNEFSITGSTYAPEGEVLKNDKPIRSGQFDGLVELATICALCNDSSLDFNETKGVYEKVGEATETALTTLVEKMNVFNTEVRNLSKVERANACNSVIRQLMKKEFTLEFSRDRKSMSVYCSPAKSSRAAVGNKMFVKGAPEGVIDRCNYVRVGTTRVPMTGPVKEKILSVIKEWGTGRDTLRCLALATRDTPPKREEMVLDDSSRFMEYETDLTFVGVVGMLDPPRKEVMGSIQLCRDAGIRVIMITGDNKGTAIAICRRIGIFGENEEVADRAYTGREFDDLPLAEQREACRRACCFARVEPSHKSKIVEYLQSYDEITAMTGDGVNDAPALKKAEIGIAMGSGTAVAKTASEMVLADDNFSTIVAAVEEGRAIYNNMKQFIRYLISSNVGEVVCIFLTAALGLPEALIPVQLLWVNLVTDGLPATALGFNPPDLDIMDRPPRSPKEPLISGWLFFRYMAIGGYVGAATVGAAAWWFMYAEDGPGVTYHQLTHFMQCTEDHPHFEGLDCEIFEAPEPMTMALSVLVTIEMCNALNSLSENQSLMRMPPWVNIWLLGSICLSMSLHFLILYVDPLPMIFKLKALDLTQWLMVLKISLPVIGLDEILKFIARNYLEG
Procedure: To further examine the functional effects of Hit compounds, Ca-ATPase assays were performed on both skeletal SR (SERCA1a only) and cardiac SR (SERCA2a + PLB) at a series of Ca concentrations ranging from pCa 5 to 8.
as §1, §2

[3] = target: SERCA2a-PLB complex (GFP-SERCA2a / RFP-PLB in HEK293 cells) (Homo sapiens, UniProt P16615+P26678, C36A/C41F/C46A); assay: SERCA2a-PLB TR-FRET (fluorescence lifetime) biosensor assay in living cells; type: cell-based; set-up: expressed in transfected cells; host or cells: HEK293; conditions: for ΔFLT: compound incubation for 20 min, uncertainty (1 S.D.) 11 ps; for direction of FRET change of the SERCA2a-PLB biosensor: concentration-response 0.01-100 µM
Sequence of SERCA2a-PLB complex (GFP-SERCA2a / RFP-PLB in HEK293 cells) (P16615 1-997 isoform P16615-2, stated change not applied): as the sequence (P11607 1-997 isoform P11607-2) above, with K371R, K403N, P538S, M570L, N576H, E667D, S713A, T865S, V889I, L963V counted along it
Sequence of SERCA2a-PLB complex (GFP-SERCA2a / RFP-PLB in HEK293 cells) (P26678 whole entry C36A/C41F/C46A): as the sequence (P61013 whole entry partner) above, with D2E, N27K, C36A, C41F, C46A counted along it

[4] = concentration-response 0.01-100 µM compound, live HEK293 cells

Row | SMILES | Vmax @ 30 µM ([1]; CSR) | ΔVmax @ 30 µM ([1]; CSR) | Vmax @ 30 µM [2] | ΔVmax @ 30 µM [2] | ΔFLT ([3]; final concentration 10 µM) | ΔFLT ([3]; final concentration 100 µM) | EC50 [3, 4] | EC50 ([1]; CSR, read-out: EC50 Vmax) | increase of Vmax ([1]; cardiac SR) | EC50 [2] | percent change in Vmax vs DMSO control at 30 µM [2] | increase of Vmax ([2]; skeletal SR) | direction of FRET change of the SERCA2a-PLB biosensor [3] | EC50 ([1]; cardiac SR (SERCA2a + PLB), read-out: EC50 of the increase in Ca affinity (pKCa)) | increase of Ca-ATPase activity at pCa 6.4 ([1]; cardiac SR, pCa 6.4, 24 µM compound) | Ca affinity (pKCa) in cardiac SR with compound ([1]; increased from 6.05 (control), concentration-dependent, up to 64 µM) | effect on Ca affinity in skeletal SR ([2]; even at the highest compound concentrations) | decrease of Vmax ([1]; cardiac SR) | decrease of Vmax ([2]; skeletal SR) | EC50 [3]
1 | Brc1c(Br)c(Br)c2n[nH]nc2c1Br [TBB] | 0.49 i.u. | -27.2% | 2.66 i.u. | 1.6% | 31 ps | 63 ps | 73.2 µM | – | – | – | – | – | – | – | – | – | – | – | – | –
2 | CCCCN(CC)c1nc(C)nc2c1c(C)cn2-c1c(C)cc(C)cc1C [CP 154526] | 0.91 i.u. | 34.4% | 3.40 i.u. | – | 48 ps | 185 ps | 9.3 µM | 1 µM | 34% | 2.5 µM and 2.47 µM | 35% | 35% | decrease in FRET | – | – | – | – | – | – | –
3 | Clc1ccc(C(c2ccc(Cl)cc2)n2cc[n+](CC(OCc3ccc(Cl)cc3Cl)c3ccc(Cl)cc3Cl)c2)cc1 (stereo not drawn) [Calmidazolium] | 0.08 i.u. | -88.7% | 0.01 i.u. | – | 45 ps | -192 ps | 26.3 µM | 15.9 µM | – | 7.43 µM | -99.5% | – | – | – | – | – | – | – | – | –
4 | CC1=C(/C=C/C(C)=C/C=C/C(C)=C/C(=O)O)C(C)(C)CCC1 [Retinoic Acid] | 0.42 i.u. | -37.8% | 2.34 i.u. | – | 27 ps | -31 ps | 65.5 µM | 11.2 µM | – | – | -10.6% | – | – | – | – | – | – | – | – | –
5 | Oc1ccc(/C=C/c2ccc(/C=C/c3ccc(O)cc3)c(Br)c2)cc1 [K114] | 0.11 i.u. | -83.7% | 0.32 i.u. | -87.9% | -16 ps | -102 ps | 41.3 µM | 6.7 µM | – | 3.53 µM | – | – | – | – | – | – | – | – | – | –
6 | CCOc1nc2cccc(C(=O)OC(C)OC(=O)OC3CCCCC3)c2n1Cc1ccc(-c2ccccc2-c2nnn[nH]2)cc1 (stereo not drawn) [Candesartan cilexetil] | 0.17 i.u. | -75.3% | 0.41 i.u. | – | 70 ps | 181 ps | 20.1 µM | 11.7 µM | – | 7.42 µM | -84.5% | – | – | – | – | – | – | – | – | –
7 | O=C(c1cc(O)c(O)c([N+](=O)[O-])c1)c1ccccc1F [Ro 41-0960] | 0.53 i.u. | -20.9% | 1.44 i.u. | -45.1% | -26 ps | -152 ps | 22.5 µM | – | – | 9.78 µM | – | – | increase in FRET | 23 µM | 44% | 6.45 | no effect | – | – | –
8 | CCc1ccc(/C=C2/SC(=S)NC2=O)cc1 [10058-F4] | 0.63 i.u. | -7.5% | 2.63 i.u. | 0.5% | 17 ps | -11 ps | – | – | – | – | – | – | – | – | – | – | – | – | – | –
9 | CCCCCCCCCCCCCCCC(=O)OC(CC(=O)O)C[N+](C)(C)C.[Cl-] (racemic) [Palmitoyl-DL-carnitine chloride] | 0.22 i.u. | -67.1% | 0.57 i.u. | -78.1% | 50 ps | 189 ps | 24.9 µM | 16.1 µM | – | 12.2 µM | – | – | – | – | – | – | – | – | – | –
10 | CC(C)(C)c1ccc(/C=C/C(=O)Nc2ccc3c(c2)OCCO3)cc1 [AMG9810] | 0.68 i.u. | 0.1% | 2.62 i.u. | 0.1% | 6 ps | -1 ps | – | – | – | – | – | – | – | – | – | – | – | – | – | –
11 | CN=c1nc(-c2ccccc2)n(-c2ccccc2)s1 [SCH 202676] | 0.22 i.u. | -68.2% | 0.07 i.u. | -97.3% | 36 ps | 35 ps | 1.8 µM | 1.4 µM | – | 0.9 µM | – | – | decrease in FRET | – | – | – | – | 68% | 97% | –
12 | COC(=O)c1c(C)[nH]c(C)c1C(=O)c1ccccc1Cc1ccccc1 [FPL 64176] | 0.52 i.u. | -23.0% | 2.64 i.u. | 0.7% | 19 ps | 47 ps | > 100 µM | – | – | – | – | – | – | – | – | – | – | – | – | –
13 | NC(=O)N1C(=O)/C(=C(\O)c2cccs2)c2cc(Cl)ccc21 [Tenidap] | 0.66 i.u. | -1.7% | 2.66 i.u. | – | 8 ps | -68 ps | – | – | – | – | 1.8% | – | – | – | – | – | – | – | – | > 100 µM
14 | CNC(=O)c1cc2c(cn1)[nH]c1ccccc12 [FG7142] | 0.67 i.u. | -0.7% | 2.63 i.u. | 0.5% | 4 ps | 10 ps | – | – | – | – | – | – | – | – | – | – | – | – | – | –
15 | O=C(Nc1cccnc1)N1CCC(Cc2cccc(Oc3ccc(C(F)(F)F)cn3)c2)CC1 [PF3845] | 0.48 i.u. | -28.3% | 2.61 i.u. | – | 30 ps | 38 ps | – | – | – | – | -0.2% | – | – | – | – | – | – | – | – | 3.2 µM
16 | Cc1[nH]c(=O)c(C#N)cc1-c1ccc2nccn2c1 [Olprinone] | 0.68 i.u. | -0.1% | 2.70 i.u. | – | 36 ps | 254 ps | > 100 µM | – | – | – | 3% | – | – | – | – | – | – | – | – | –
17 | C=C(C)[C@H]1Cc2c(ccc3c2O[C@@H]2COc4cc(OC)c(OC)cc4[C@@H]2C3=O)O1 [Rotenone] | 0.53 i.u. | -22.0% | 2.64 i.u. | – | – | – | – | – | – | – | 0.7% | – | – | – | – | – | – | – | – | –

Reference: paper PMC6105598, “Targeting protein-protein interactions for therapeutic discovery via FRET-based high-throughput screening in living cells” (Scientific Reports, 2018)
